Test results: PMC4076079, “Selective inhibitors of a PAF biosynthetic enzyme lysophosphatidylcholine acyltransferase 2” (Journal of Lipid Research, 2014)

Legend:
[1] = tested on: mouse peritoneal macrophages; test: PAF and lyso-PAF production in LPS-primed, A23187-stimulated peritoneal macrophages; assay type: cell-based; settings: 5 μM A23187 5 min
Experimental: RAW-mLPCAT2 cells and peritoneal macrophages were seeded in 24-well plates (4 × 10^6 cells/well) for 24 or 2 h, respectively, before treatment. RAW-mLPCAT2 cells were stimulated with 5 μM A23187 for 5 min after a 1 h treatment with the compounds. Peritoneal macrophages were preincubated with 100 ng/ml LPS for 18 h, treated with the compounds for 1 h, and stimulated with 5 μM A23187 for 5 min. To analyze cellular PAF levels, lipids were extracted with 500 μl methanol containing d4-PAF and d4-lyso-PAF as internal standards. Each sample was submitted to solid phase extraction using an Oasis HLB 96-well cartridge cluster (Waters), and PAF and lyso-PAF were measured by LC-MS/MS as previously described ([13]).
Chromatography was performed using an Acquity™ Ultra-performance LC system (Waters) coupled to a TSQ Vantage triple stage quadrupole mass spectrometer (Thermo Scientific) with a HESI-II electrospray ionization source ([13]). Phospholipids were separated on BEH C8 columns (1.7 μm, 2.1 × 30 mm or 1 × 100 mm; Waters) for the analysis of assay products or the composition of cellular PAF and lyso-PAF, respectively. The mobile phase contained 20 mM aqueous ammonium bicarbonate and acetonitrile. The extracts from peritoneal macrophages were separated on a Kinetex C8 column (1.7 μm, 2.1 × 100 mm; Phenomenex, Torrance, CA) by a gradient elution with 0.05% formic acid-water and acetonitrile, using the Nexera X2 system and LCMS-8080 mass spectrometer (Shimadzu, Kyoto, Japan) ([13]). Lyso-PAF, d4-PAF, and d31-DPPC were identified by the choline fragment (m/z 184) as a product ion of selected reaction monitoring in the positive ion mode. Nonlabeled PAF and d4-16:0/20:4 alkyl-PC were determined by fatty acid anions of sn-2 composition (m/z 59 and 303, respectively) in the negative ion mode. […] Signal intensities were determined relative to the internal standard or as the percentage of the positive control.
The effect of TSI-01 on PAF and lyso-PAF biosynthesis was evaluated using thioglycollate-elicited mouse peritoneal macrophages. […]

PLA2 = PLA2 assay; assay type: biochemical, mouse; settings: 20 μM compound, soluble protein fraction of peritoneal macrophages; data not shown
Experimental: PAF-AH and PLA2 activities were determined as previously described ([3]). Briefly, a soluble protein fraction of peritoneal macrophages was incubated with 20 μM of each compound at 37°C for 30 min in a total volume of 0.1 ml. For the PAF-AH assay, the reaction mixture contained 2.5 μg protein, 50 mM Tris-HCl (pH 7.4), 5 mM EDTA, 5 mM 2-mercaptoethanol, and 1 μM d4-PAF. For the PLA2 assay, 10 μg protein was incubated in buffer containing 100 mM Tris-HCl (pH 7.4), 1 mg/ml BSA, 4 mM CaCl2, 1 mM DTT, and 2 μM 16:0/20:4 alkyl-PC. A cytosolic PLA2 inhibitor, pyrrophenone (Sigma-Aldrich), was used as a positive control. The reactions were stopped with 0.27 ml of chloroform/methanol (1:2, v/v), followed by the sequential addition of an internal standard (17:0 LPC or d4-lyso-PAF), 0.11 ml chloroform, and 0.1 ml water. Lipids were extracted using the Bligh and Dyer method ([26]). The PAF-AH and PLA2 activities were measured by detecting d4-lyso-PAF and nonlabeled lyso-PAF, respectively, using LC-MS/MS.

`CC(C)OC(=O)c1ccc(N2C(=O)C(Cl)=C(Cl)C2=O)cc1` [TSI-01, propan-2-yl 4-(3,4-dichloro-2,5-dioxopyrrol-1-yl)benzoate] was tested, and the PAF levels ([1]; 60 μM TSI-01, LPS 18 h, compound 1 h) was “below the detection limit”, the “PAF levels in A23187-stimulated cells” value ([1]; LPS 100 ng/ml 18 h, TSI-01 1 h) was “decreased” and the lyso-PAF levels ([1]; LPS 100 ng/ml 18 h, TSI-01 1 h) was “not changed”. For the same molecule, the PLA2 activity (PLA2) was “not PLA2 activity”.
